COc1c(C(C)(C)C)cc([N+](=O)[O-])c(C)c1[N+](=O)[O-]
solubility (mole fraction)
Details	278.15 K	283.15 K	288.15 K	293.15 K	298.15 K	303.15 K	308.15 K	313.15 K	318.15 K
in DMAc	0.121	0.14	0.162	0.189	0.221	0.258	0.3	0.347	0.4
in DMF	0.0875	0.107	0.127	0.154	0.183	0.221	0.263	0.31	0.372
in THF	0.157	0.177	0.203	0.231	0.264	0.302	0.342	0.391	0.446
in acetonitrile	0.0355	0.0456	0.0608	0.0819	0.111	0.146	0.189	0.25	0.33
in ethanol	0.00359	0.0046	0.00594	0.00791	0.00992	0.0131	0.0164	0.0215	0.0276
in methanol	0.00266	0.00351	0.00447	0.00561	0.00719	0.00897	0.0112	0.0144	0.018
in n-butanol	0.00491	0.00673	0.0088	0.0111	0.0143	0.0192	0.0241	0.0308	0.0405
in n-propanol	0.00367	0.00463	0.00591	0.00789	0.0105	0.0137	0.0182	0.024	0.0311

From BigSolDB 2.1
